From PubChem BioAssay (NCI)
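Exposure lasted 48 hours, with cells grown in 96-well plates and compounds tested at five concentrations. GI50 is the concentration that inhibits growth by half. TGI: total growth inhibition.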

What was measured:
Assay in all cases: inhibition of tumour cell growth, NCI panel, 48 h
786-0 renal = tested on: 786-0 renal
A498 renal = tested on: A498 renal
A549 NSCLC = tested on: A549 NSCLC
ACHN renal = tested on: ACHN renal
BT-549 breast = tested on: BT-549 breast
CAKI-1 renal = tested on: CAKI-1 renal
CCRF-CEM leukemia = tested on: CCRF-CEM leukemia
COLO 205 colon = tested on: COLO 205 colon
DU-145 prostate = tested on: DU-145 prostate
EKVX NSCLC = tested on: EKVX NSCLC
HCC-2998 colon = tested on: HCC-2998 colon
HCT-116 colon = tested on: HCT-116 colon
HCT-15 colon = tested on: HCT-15 colon
HL-60(TB) leukemia = tested on: HL-60(TB) leukemia
HOP-62 NSCLC = tested on: HOP-62 NSCLC
HOP-92 NSCLC = tested on: HOP-92 NSCLC
HS 578T breast = tested on: HS 578T breast
HT29 colon = tested on: HT29 colon
IGROV1 ovarian = tested on: IGROV1 ovarian
K-562 leukemia = tested on: K-562 leukemia
KM12 colon = tested on: KM12 colon
LOX IMVI melanoma = tested on: LOX IMVI melanoma
M14 melanoma = tested on: M14 melanoma
MALME-3M melanoma = tested on: MALME-3M melanoma
MCF7 breast = tested on: MCF7 breast
MDA-MB-231 breast = tested on: MDA-MB-231 breast
MDA-MB-435 = tested on: MDA-MB-435
MOLT-4 leukemia = tested on: MOLT-4 leukemia
NCI-H226 lung = tested on: NCI-H226 lung

COc1ccc2c(C3=C(c4cn(C)c5ccccc45)C(=O)NC3=O)coc2c1
GI50 (786-0 renal): 524 nM
TGI (786-0 renal): 16500 nM
GI50 (A498 renal): 7450 nM
TGI (A498 renal): 25500 nM
GI50 (A549 NSCLC): 1000 nM
TGI (A549 NSCLC): > 100000 nM
GI50 (ACHN renal): 798 nM
TGI (ACHN renal): 15500 nM
GI50 (BT-549 breast): 847 nM
TGI (BT-549 breast): 18200 nM
GI50 (CAKI-1 renal): 160 nM
TGI (CAKI-1 renal): 17300 nM
GI50 (CCRF-CEM leukemia): 286 nM
TGI (CCRF-CEM leukemia): 13700 nM
GI50 (COLO 205 colon): 289 nM
TGI (COLO 205 colon): 1310 nM
GI50 (DU-145 prostate): 541 nM
TGI (DU-145 prostate): 19500 nM
GI50 (EKVX NSCLC): 593 nM
TGI (EKVX NSCLC): > 88400 nM
GI50 (HCC-2998 colon): 650 nM
TGI (HCC-2998 colon): 10900 nM
GI50 (HCT-116 colon): 267 nM
TGI (HCT-116 colon): 12100 nM
GI50 (HCT-15 colon): 172 nM
TGI (HCT-15 colon): 24400 nM
GI50 (HL-60(TB) leukemia): 155 nM
TGI (HL-60(TB) leukemia): 865 nM
GI50 (HOP-62 NSCLC): 416 nM
TGI (HOP-62 NSCLC): 20100 nM
GI50 (HOP-92 NSCLC): 21300 nM
TGI (HOP-92 NSCLC): 44500 nM
GI50 (HS 578T breast): 234 nM
TGI (HS 578T breast): 3800 nM
GI50 (HT29 colon): 300 nM
TGI (HT29 colon): 4830 nM
GI50 (IGROV1 ovarian): 700 nM
TGI (IGROV1 ovarian): 24400 nM
GI50 (K-562 leukemia): 99.7 nM
TGI (K-562 leukemia): > 100000 nM
GI50 (KM12 colon): 347 nM
TGI (KM12 colon): 13100 nM
GI50 (LOX IMVI melanoma): 558 nM
TGI (LOX IMVI melanoma): 16600 nM
GI50 (M14 melanoma): 288 nM
TGI (M14 melanoma): 18600 nM
GI50 (MALME-3M melanoma): 12200 nM
TGI (MALME-3M melanoma): 33000 nM
GI50 (MCF7 breast): 208 nM
TGI (MCF7 breast): 26000 nM
GI50 (MDA-MB-231 breast): 632 nM
TGI (MDA-MB-231 breast): 8110 nM
GI50 (MDA-MB-435): 132 nM
TGI (MDA-MB-435): 477 nM
GI50 (MOLT-4 leukemia): 424 nM
TGI (MOLT-4 leukemia): 33200 nM
GI50 (NCI-H226 lung): 1520 nM
TGI (NCI-H226 lung): 17700 nM
